Test results taken from DBAASP.
Values after ≈ are worked out from the molar mass of the structure shown. Values joined by “and” are separate entries in the source; they are usually repeats but may differ in a detail not shown here. Identical values can stand only once.

Assays:
Assay in all cases: ≥ marks a high value that may be exact or a test limit, other limits are often not marked, values filed in µg/mL are converted to µM
Staphylococcus aureus = system: Staphylococcus aureus
[1] = system: Batrachochytrium dendrobatidis
[2] = system: Micrococcus luteus AB93113
Micrococcus luteus = system: Micrococcus luteus
Pseudomonas aeruginosa = system: Pseudomonas aeruginosa
[3] = system: Bacillus subtilis AB91021
Bacillus subtilis = system: Bacillus subtilis
Escherichia coli = system: Escherichia coli
[4] = system: Batrachochytrium dendrobatidis JEL-197
[5] = system: Escherichia coli ATCC 25726
[6] = system: Staphylococcus aureus ATCC 25923
[7] = system: Bacillus subtilis ATCC 6633
[8] = system: Staphylococcus aureus JC-1
[9] = system: Pseudomonas aeruginosa OT97
Escherichia coli D21 = system: Escherichia coli D21
[10] = system: Shigella flexneri ATCC 203
[11] = system: Staphylococcus aureus Cowan 1
Bacillus megaterium Bm11 = system: Bacillus megaterium Bm11
[12] = system: Proteus vulgaris OX19 ATCC 6380
[13] = system: Veillonella atypica PK1910
Streptococcus mutans = system: Streptococcus mutans
[14] = system: Streptococcus sanguinis NY101
[15] = system: Streptococcus mitis ATCC 903
[16] = system: Streptococcus gordonii Challis DL1
[17] = system: Lacticaseibacillus casei ATCC 4646
[18] = system: Candida albicans NCYC 1467
[19] = system: Staphylococcus aureus NCTC 10788
[20] = system: Legionella pneumophila Lens
[21] = system: Pseudomonas aeruginosa PAK
[22] = system: Streptococcus mutans UA159
[23] = system: Staphylococcus aureus ATCC 29213
[24] = system: Klebsiella pneumoniae ATCC 13883
[25] = system: Burkholderia thailandensis
[26] = system: Candida albicans ATCC 10231
[27] = system: Bacillus anthracis Sterne 34F2
[28] = system: Bacillus subtilis ATCC 9372

CC[C@H](C)[C@H](NC(=O)[C@H](C)NC(=O)[C@H](CO)NC(=O)[C@@H](NC(=O)[C@@H](N)Cc1ccccc1)[C@@H](C)CC)C(=O)N[C@@H](C)C(=O)N[C@@H](CO)C(=O)N[C@@H](CCSC)C(=O)N[C@@H](CC(C)C)C(=O)NCC(=O)N[C@@H](CCCCN)C(=O)N[C@@H](Cc1ccccc1)C(=O)N[C@@H](CC(C)C)C(N)=O [FISAIASMLGKFL]
MIC (Staphylococcus aureus): 100 µM (≈ 140 µg/mL) | MIC [1]: ≥ 100 µM

CC[C@H](C)[C@H](NC(=O)[C@H](C)NC(=O)[C@H](CO)NC(=O)[C@@H]1CCCN1C(=O)[C@@H](NC(=O)[C@H](CC(C)C)NC(=O)[C@H](CO)NC(=O)[C@H](Cc1ccccc1)NC(=O)[C@H](CC(C)C)NC(=O)[C@@H](N)Cc1ccccc1)[C@@H](C)CC)C(=O)N[C@@H](CO)C(=O)NCC(=O)N[C@@H](CC(C)C)C(=O)N[C@H](C(=O)N[C@@H](CO)C(=O)N[C@@H](C)C(=O)N[C@@H](Cc1ccccc1)C(=O)N[C@@H](CCCCN)C(N)=O)[C@@H](C)CC [FLFSLIPSAISGLISAFK]
MIC [2]: ≥ 42.6 µM | MIC (Micrococcus luteus): ≥ 42.6 µM | MIC (Staphylococcus aureus): 8.37 µM (≈ 16 µg/mL) | MIC (Pseudomonas aeruginosa): 47.5 µM | MIC [3]: 25.5 µM (≈ 48.7 µg/mL) | MIC (Bacillus subtilis): 25.5 µM (≈ 48.8 µg/mL) | MIC (Escherichia coli): 9.47 µM and 9.5 µM

CC[C@H](C)[C@H](NC(=O)[C@@H](NC(=O)[C@@H]1CCCN1C(=O)[C@H](CC(C)C)NC(=O)[C@@H](N)Cc1ccccc1)[C@@H](C)CC)C(=O)N[C@H](C(=O)N[C@@H](CC(N)=O)C(=O)N[C@@H](CC(C)C)C(=O)N[C@@H](CC(C)C)C(=O)NCC(=O)N[C@@H](CCCCN)C(=O)N[C@@H](CC(C)C)C(=O)N[C@@H](CC(C)C)C(N)=O)[C@@H](C)O [FLPIITNLLGKLL]
MIC [4]: ≥ 100 µM | MIC [5]: ≥ 100 µM | MIC [6]: 6 µM (≈ 8.72 µg/mL)

CC[C@H](C)[C@H](NC(=O)CN)C(=O)N[C@@H](CC(C)C)C(=O)N[C@@H](CC(=O)O)C(=O)N[C@H](C(=O)N[C@@H](Cc1ccccc1)C(=O)N[C@@H](CCCCN)C(=O)NCC(=O)N[C@H](C(=O)N[C@@H](C)C(=O)N[C@@H](CCCCN)C(=O)NCC(=O)N[C@H](C(=O)N[C@@H](C)C(=O)N[C@@H](CCCCN)C(=O)N[C@@H](CC(=O)O)C(=O)N[C@@H](CC(C)C)C(=O)N[C@@H](C)C(=O)N[C@H](C(=O)N[C@@H](Cc1cnc[nH]1)C(=O)N[C@@H](CCSC)C(=O)N[C@@H](CC(C)C)C(=O)N[C@@H](CCC(=O)O)C(=O)N[C@@H](CCCCN)C(=O)N[C@@H](CC(C)C)C(=O)N[C@@H](CCCCN)C(=O)N[C@H]1CSSC[C@@H](C(=O)O)NC(=O)CNC(=O)[C@H]([C@@H](C)O)NC(=O)[C@H](CCSC)NC(=O)[C@H](CCCCN)NC1=O)C(C)C)C(C)C)C(C)C)[C@@H](C)O [GILDTFKGVAKGVAKDLAVHMLEKLKCKMTGC]
MIC [4]: 25 µM (≈ 85.1 µg/mL) | MIC [5]: ≥ 40 µM | MIC [6]: 40 µM (≈ 136 µg/mL)

CC[C@H](C)[C@H](NC(=O)[C@H](CCCCN)NC(=O)[C@@H](NC(=O)[C@@H](NC(=O)[C@H](CCC(N)=O)NC(=O)CNC(=O)[C@H](Cc1cnc[nH]1)NC(=O)[C@H](CCC(N)=O)NC(=O)[C@H](CC(N)=O)NC(=O)[C@H](CCC(N)=O)NC(=O)[C@@H](NC(=O)[C@@H](N)CCCCN)C(C)C)C(C)C)C(C)C)C(=O)N[C@@H](Cc1ccccc1)C(=O)N[C@@H](Cc1cnc[nH]1)C(=O)N[C@@H](Cc1cnc[nH]1)C(=O)O [KVQNQHGQVVKIFHH]
MIC [7]: ≥ 800 µM | MIC [8]: ≥ 800 µM | MIC [9]: ≥ 6000 µM | MIC (Escherichia coli D21): ≥ 3200 µM | MIC [10]: ≥ 800 µM | MIC [11]: ≥ 6000 µM | MIC (Bacillus megaterium Bm11): ≥ 1600 µM | MIC [12]: ≥ 6000 µM

CC(C)C[C@H](NC(=O)[C@H](Cc1ccccc1)NC(=O)[C@H](CCCN=C(N)N)NC(=O)[C@H](CCCCN)NC(=O)[C@@H](N)CC(C)C)C(=O)N[C@@H](CCCCN)C(=O)N[C@@H](Cc1c[nH]c2ccccc12)C(=O)N[C@@H](Cc1ccccc1)C(=O)N[C@@H](CCCCN)C(=O)N[C@@H](CCCN=C(N)N)C(=O)N[C@@H](Cc1ccccc1)C(N)=O [LKRFLKWFKRF]
MIC [13]: 20.4 µM (≈ 32 µg/mL) | MIC (Streptococcus mutans): 8.83 µM (≈ 13.8 µg/mL) | MIC [14]: 10.2 µM (≈ 16 µg/mL) | MIC [15]: ≥ 40.8 µM | MIC [16]: 20.4 µM (≈ 32 µg/mL) | MIC [17]: 10.2 µM (≈ 16 µg/mL)

CC[C@H](C)[C@H](NC(=O)[C@H](C)NC(=O)[C@H](CO)NC(=O)[C@@H](NC(=O)[C@H](C)NC(=O)[C@H](CC(C)C)NC(=O)[C@@H]1CCCN1C(=O)[C@@H](NC(=O)[C@H](CCSC)NC(=O)CNC(=O)[C@H](CC(C)C)NC(=O)[C@@H](N)CC(C)C)[C@@H](C)CC)[C@@H](C)CC)C(=O)N[C@@H](CO)C(=O)N[C@@H](C)C(=O)N[C@@H](CC(C)C)C(=O)N[C@@H](CO)C(=O)N[C@@H](CCCCN)C(=O)N[C@@H](CC(C)C)C(N)=O [LLGMIPLAISAISALSKL]
MIC [18]: 17.7 µM (≈ 32 µg/mL) | MIC [1]: ≥ 100 µM | MIC [5]: ≥ 128 µM | MIC [19]: 4.42 µM (≈ 8 µg/mL) | MIC [6]: 8 µM (≈ 14.5 µg/mL)

CC[C@H](C)[C@H](NC(=O)[C@H](CC(C)C)NC(=O)[C@H](CC(=O)O)NC(=O)[C@@H](NC(=O)[C@@H](NC(=O)[C@H](Cc1ccccc1)NC(=O)[C@H](CCC(N)=O)NC(=O)[C@@H](N)CCSC)[C@@H](C)CC)[C@@H](C)O)C(=O)NCC(=O)N[C@@H](CCCCN)C(=O)N[C@@H](C)C(=O)N[C@H](C(=O)N[C@@H](CC(=O)O)C(=O)N[C@@H](Cc1ccccc1)C(=O)N[C@@H](Cc1ccccc1)C(=O)N[C@@H](CCCCN)C(=O)NCC(=O)N[C@@H](CC(C)C)C(=O)N[C@@H](Cc1ccccc1)C(=O)N[C@@H](CC(=O)O)C(=O)N[C@@H](CC(N)=O)C(=O)N[C@@H](CCCCN)C(=O)O)C(C)C [MQFITDLIGKAVDFFKGLFDNK]
MIC [20]: 19.6 µM (≈ 49.9 µg/mL)

NC(=O)[C@H](Cc1ccccc1)NC(=O)[C@H](Cc1c[nH]c2ccccc12)NC(=O)[C@H](CCCN=C(N)N)NC(=O)[C@H](Cc1c[nH]c2ccccc12)NC(=O)[C@H](CCCN=C(N)N)NC(=O)[C@H](Cc1c[nH]c2ccccc12)NC(=O)[C@@H](N)CCCN=C(N)N [RWRWRWF]
MIC [13]: ≥ 53.7 µM | MIC [21]: 26.8 µM (≈ 32 µg/mL) | MIC (Staphylococcus aureus): 26.8 µM (≈ 32 µg/mL) | MIC [14]: 26.8 µM (≈ 32 µg/mL) | MIC [15]: 26.8 µM (≈ 32 µg/mL) | MIC [16]: 26.8 µM (≈ 32 µg/mL) | MIC [17]: 26.8 µM (≈ 32 µg/mL) | MIC [22]: 4.74 µM (≈ 5.65 µg/mL)

CC[C@H](C)[C@H](NC(=O)[C@H](C)NC(=O)[C@@H](N)C(C)C)C(=O)N[C@@H](C)C(=O)N[C@@H](CC(C)C)C(=O)N[C@@H](CCCCN)C(=O)N[C@@H](C)C(=O)N[C@@H](C)C(=O)N[C@@H](Cc1cnc[nH]1)C(=O)N[C@@H](Cc1ccc(O)cc1)C(=O)N[C@@H](Cc1cnc[nH]1)C(=O)N[C@H](C(=O)N[C@@H](Cc1cnc[nH]1)C(=O)N[C@@H](CCCCN)C(=O)N[C@@H](CCC(=O)O)C(=O)O)[C@@H](C)O [VAIALKAAHYHTHKE]
MIC [23]: 75.8 µM (≈ 128 µg/mL) | MIC [24]: ≥ 75.8 µM | MIC [25]: ≥ 50 µM | MIC [26]: 0.592 µM (≈ 1 µg/mL) | MIC [27]: ≥ 100 µM | MIC [28]: ≥ 100 µM
